Assay results: patent US10392368B2, “Pyrazolo and triazolo bicyclic compounds as JAK kinase inhibitors” (THERAVANCE BIOPHARMA R&D IP, LLC, priority 2017, dated 2019)
pKi: −log10 of the molar value. Read-outs that look alike come from different tables or passages of the source.

What was measured:
JAK3 = biological target: T1, JAK3 (Homo sapiens, UniProt P52333); test: Biochemical JAK3 kinase assay (LanthaScreen); set-up: GST; purchased Life Technologies; conditions: for Ki: read-out: JAK 3 (pKi) (converted)
T1 sequence (P52333 1-1124): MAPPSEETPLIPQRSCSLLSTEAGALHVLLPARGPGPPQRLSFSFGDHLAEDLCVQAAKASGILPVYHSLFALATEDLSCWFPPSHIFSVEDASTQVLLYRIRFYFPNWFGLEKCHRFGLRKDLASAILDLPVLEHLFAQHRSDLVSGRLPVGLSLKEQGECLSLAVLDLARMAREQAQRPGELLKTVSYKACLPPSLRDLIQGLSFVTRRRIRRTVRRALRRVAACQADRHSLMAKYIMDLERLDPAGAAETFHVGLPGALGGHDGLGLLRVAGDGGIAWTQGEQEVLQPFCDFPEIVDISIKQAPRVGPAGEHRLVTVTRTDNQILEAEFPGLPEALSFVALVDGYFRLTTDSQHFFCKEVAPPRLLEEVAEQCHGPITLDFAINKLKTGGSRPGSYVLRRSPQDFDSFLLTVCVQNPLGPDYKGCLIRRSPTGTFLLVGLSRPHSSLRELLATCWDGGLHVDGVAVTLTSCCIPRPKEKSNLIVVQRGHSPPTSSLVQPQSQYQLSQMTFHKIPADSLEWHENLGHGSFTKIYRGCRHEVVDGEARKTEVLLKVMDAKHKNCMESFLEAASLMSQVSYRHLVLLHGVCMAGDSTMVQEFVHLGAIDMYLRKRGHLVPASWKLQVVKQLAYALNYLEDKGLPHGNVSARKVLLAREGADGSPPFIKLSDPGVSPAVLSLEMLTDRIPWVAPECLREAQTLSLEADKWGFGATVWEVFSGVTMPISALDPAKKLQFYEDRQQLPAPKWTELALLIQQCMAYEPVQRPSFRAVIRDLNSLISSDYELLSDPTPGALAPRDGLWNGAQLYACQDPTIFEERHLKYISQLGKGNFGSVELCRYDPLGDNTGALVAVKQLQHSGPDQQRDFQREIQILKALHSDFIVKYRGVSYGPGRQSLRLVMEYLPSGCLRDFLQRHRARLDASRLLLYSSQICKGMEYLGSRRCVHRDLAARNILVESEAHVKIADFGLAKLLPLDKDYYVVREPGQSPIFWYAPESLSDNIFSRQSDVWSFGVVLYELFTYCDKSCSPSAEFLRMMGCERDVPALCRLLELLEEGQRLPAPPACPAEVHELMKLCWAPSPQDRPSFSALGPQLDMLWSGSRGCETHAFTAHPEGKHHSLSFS
How it was run: (§1)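 TR-FRET read-out: terbium anti-pSTAT1 (pTyr701) antibody, 2 nM, with 10 mM EDTA quench, emission ratio 520/495 nm. GST-JAK phosphorylates GFP-STAT1 peptide for 1 h at ambient temperature after 1 h compound pre-incubation. pIC50 from dose-response converted to pKi by Cheng-Prusoff.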

JAK1 = biological target: T2, JAK1 (Homo sapiens, UniProt P23458); test: Biochemical JAK1 kinase assay (LanthaScreen); conditions: for Ki: read-out: JAK 1 (pKi) (converted)
T2 construct: GST; purchased Life Technologies
T2 sequence (P23458 whole entry): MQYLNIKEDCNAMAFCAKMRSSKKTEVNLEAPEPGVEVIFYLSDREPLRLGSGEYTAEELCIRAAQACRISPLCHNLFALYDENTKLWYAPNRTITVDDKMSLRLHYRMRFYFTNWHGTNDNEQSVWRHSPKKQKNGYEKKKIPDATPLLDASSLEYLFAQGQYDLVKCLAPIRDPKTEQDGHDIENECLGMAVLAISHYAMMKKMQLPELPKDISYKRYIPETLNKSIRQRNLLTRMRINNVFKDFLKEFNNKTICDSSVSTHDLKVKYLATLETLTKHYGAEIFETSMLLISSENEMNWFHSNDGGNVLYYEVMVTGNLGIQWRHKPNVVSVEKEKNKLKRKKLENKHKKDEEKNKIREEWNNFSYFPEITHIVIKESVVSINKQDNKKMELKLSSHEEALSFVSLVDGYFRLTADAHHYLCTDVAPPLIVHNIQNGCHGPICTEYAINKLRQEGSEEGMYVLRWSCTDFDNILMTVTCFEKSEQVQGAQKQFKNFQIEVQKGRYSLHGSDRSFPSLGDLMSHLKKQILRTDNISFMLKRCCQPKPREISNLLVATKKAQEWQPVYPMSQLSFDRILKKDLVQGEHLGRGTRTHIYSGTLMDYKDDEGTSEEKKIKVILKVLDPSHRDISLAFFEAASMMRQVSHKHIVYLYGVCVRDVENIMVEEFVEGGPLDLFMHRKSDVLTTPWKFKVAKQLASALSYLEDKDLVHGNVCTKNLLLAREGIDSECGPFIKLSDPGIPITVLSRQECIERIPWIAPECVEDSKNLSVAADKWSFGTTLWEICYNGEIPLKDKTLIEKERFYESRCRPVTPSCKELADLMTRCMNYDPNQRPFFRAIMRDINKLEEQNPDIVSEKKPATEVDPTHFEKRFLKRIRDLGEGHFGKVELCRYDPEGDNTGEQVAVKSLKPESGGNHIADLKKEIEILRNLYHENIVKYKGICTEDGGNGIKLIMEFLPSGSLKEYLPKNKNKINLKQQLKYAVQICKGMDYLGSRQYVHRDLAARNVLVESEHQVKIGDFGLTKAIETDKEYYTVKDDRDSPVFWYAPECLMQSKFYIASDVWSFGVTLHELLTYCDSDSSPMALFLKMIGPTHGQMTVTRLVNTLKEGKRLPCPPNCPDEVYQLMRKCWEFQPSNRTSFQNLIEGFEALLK
How it was run: as §1

Tyk2 = biological target: T3, Tyk2 (Homo sapiens, UniProt P29597); test: Biochemical Tyk2 kinase assay (LanthaScreen); conditions: read-out: Tyk 2 (pKi) (converted)
T3 construct: GST; purchased Life Technologies
T3 sequence (P29597 whole entry): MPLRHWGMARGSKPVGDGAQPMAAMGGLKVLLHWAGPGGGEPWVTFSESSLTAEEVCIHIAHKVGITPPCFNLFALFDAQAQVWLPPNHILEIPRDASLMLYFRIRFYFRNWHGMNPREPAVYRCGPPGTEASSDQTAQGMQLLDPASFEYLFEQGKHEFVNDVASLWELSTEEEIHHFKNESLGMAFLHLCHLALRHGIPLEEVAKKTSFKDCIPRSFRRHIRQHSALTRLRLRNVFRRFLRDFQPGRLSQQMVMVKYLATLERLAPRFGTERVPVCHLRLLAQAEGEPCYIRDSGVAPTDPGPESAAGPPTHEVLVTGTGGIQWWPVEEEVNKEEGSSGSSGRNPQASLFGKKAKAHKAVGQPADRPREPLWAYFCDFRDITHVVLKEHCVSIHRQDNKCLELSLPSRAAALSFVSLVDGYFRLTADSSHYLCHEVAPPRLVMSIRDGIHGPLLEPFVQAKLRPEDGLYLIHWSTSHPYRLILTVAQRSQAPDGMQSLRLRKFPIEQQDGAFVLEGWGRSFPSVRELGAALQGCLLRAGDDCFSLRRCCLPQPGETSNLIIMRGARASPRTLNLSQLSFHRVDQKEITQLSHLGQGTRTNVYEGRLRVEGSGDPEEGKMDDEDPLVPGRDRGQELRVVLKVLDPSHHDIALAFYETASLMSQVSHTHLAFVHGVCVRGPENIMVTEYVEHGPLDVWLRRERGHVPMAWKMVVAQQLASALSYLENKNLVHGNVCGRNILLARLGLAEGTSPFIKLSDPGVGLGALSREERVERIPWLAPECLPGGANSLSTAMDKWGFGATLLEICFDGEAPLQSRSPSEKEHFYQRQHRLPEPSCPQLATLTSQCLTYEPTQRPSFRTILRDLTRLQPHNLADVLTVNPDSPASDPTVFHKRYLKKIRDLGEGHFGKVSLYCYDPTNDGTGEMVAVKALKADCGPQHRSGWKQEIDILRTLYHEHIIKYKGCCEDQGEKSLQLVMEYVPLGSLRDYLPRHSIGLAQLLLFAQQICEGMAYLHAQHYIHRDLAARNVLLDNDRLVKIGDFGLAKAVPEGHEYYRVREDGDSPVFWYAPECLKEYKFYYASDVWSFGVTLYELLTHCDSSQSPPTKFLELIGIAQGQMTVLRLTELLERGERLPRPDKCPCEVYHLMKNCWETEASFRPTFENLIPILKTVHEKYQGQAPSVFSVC
Protocol: (§2) A panel of four LanthaScreen JAK biochemical assays (JAK1, 2, 3 and Tyk2) were carried in a common kinase reaction buffer (50 mM HEPES, pH 7.5, 0.01% Brij-35, 10 mM MgCl2, and 1 mM EGTA). Recombinant GST-tagged JAK enzymes and a GFP-tagged STAT1 peptide substrate were obtained from Life Technologies.
(§3) Serially or discretely diluted compounds were pre-incubated with each of the four JAK enzymes and the substrate in white 384-well microplates (Corning) at ambient temperature for 1 h. ATP was subsequently added to initiate the kinase reactions in 10 μL total volume, with 1% DMSO. […] Kinase reactions were allowed to proceed for 1 hour at ambient temperature before a 10 μL preparation of EDTA (10 mM final concentration) and Tb-anti-pSTAT1 (pTyr701) antibody (Life Technologies, 2 nM final concentration) in TR-FRET dilution buffer (Life Technologies) was added. The plates were allowed to incubate at ambient temperature for 1 h before being read on the EnVision reader (Perkin Elmer). Emission ratio signals (520 nm/495 nm) were recorded and utilized to calculate the percent inhibition values based on DMSO and background controls.
(§4) For dose-response analysis, percent inhibition data were plotted vs. compound concentrations, and IC50 values were determined from a 4-parameter robust fit model with the Prism software (GraphPad Software). Results were expressed as pIC50 (negative logarithm of IC50) and subsequently converted to pKi (negative logarithm of dissociation constant, Ki) using the Cheng-Prusoff equation.

JAK2 = biological target: T4, JAK2 (Homo sapiens, UniProt O60674); test: Biochemical JAK2 kinase assay (LanthaScreen); conditions: for Ki: read-out: JAK 2 (pKi) (converted)
T4 construct: GST; purchased Life Technologies
T4 sequence (O60674 whole entry): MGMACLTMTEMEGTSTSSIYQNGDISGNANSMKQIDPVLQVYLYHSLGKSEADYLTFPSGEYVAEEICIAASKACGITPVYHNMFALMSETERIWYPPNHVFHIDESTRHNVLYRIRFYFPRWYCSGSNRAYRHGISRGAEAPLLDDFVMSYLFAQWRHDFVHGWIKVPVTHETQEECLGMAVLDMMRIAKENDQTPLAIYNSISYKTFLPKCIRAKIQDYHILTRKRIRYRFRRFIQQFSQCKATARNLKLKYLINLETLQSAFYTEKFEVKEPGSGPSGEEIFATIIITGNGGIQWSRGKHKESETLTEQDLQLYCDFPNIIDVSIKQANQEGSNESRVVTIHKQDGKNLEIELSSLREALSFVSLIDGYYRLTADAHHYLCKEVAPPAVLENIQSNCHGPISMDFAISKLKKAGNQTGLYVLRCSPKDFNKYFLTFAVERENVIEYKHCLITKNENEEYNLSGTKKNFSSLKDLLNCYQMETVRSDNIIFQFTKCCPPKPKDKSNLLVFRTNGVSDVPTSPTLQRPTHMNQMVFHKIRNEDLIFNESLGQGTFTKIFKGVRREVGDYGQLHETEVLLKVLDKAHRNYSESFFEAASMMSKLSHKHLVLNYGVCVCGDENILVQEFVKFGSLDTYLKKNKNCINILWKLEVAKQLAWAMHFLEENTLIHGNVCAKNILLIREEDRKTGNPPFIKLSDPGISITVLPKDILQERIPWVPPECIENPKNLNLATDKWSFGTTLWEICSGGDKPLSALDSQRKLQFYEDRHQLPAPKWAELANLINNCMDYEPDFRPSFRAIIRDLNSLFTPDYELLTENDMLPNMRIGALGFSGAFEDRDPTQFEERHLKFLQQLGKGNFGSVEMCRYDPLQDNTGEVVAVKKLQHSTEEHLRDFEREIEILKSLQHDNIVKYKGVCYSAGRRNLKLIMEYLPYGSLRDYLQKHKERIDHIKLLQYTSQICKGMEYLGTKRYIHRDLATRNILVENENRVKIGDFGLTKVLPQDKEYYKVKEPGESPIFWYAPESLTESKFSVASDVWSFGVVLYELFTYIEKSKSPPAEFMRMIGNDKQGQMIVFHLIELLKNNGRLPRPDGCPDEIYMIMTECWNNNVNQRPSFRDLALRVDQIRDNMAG
Protocol: as §2
as §3, with “Elmer).” for “Elmer). Emission ratio signals (520 nm/495 nm) were recorded and utilized to calculate the percent inhibition values based on DMSO and background controls.”
as §4

[1] = system: IL-2 stimulated pSTAT5 in Tall-1 T cells; test: Cellular JAK3 potency assay: inhibition of IL-2 stimulated pSTAT5 in Tall-1 T cells; assay type: cell-based, human; conditions: for IC50: Homo sapiens, read-out: Tall-1 (pIC50) (converted); for Tall-1 (pIC50): IL-2 stimulated pSTAT5, Tall-1 T cells
How it was run: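 Tall-1 human T cells were preincubated with compound for 1 h at 37° C, then stimulated with IL-2 (300 ng/ml final) for 30 min. STAT5 phosphorylation in lysates was read by AlphaLisa bead emission, and IC50 from inhibition curves is given as pIC50 (mean±SD).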

[2] = selectivity: difference of pKi JAK3 and pKi JAK1
[3] = TALL-1, IL-2 stimulated pSTAT5 in Tall-1 T cells
[4] = selectivity JAK3 over JAK1, difference of pKi
[5] = TALL-1, IL-2 stimulated pSTAT5, Tall-1 T cells

| Structure (SMILES) | Ki (JAK3) [nM] | JAK3 (pKi)-JAK1 (pKi) (JAK3; [2]) | Ki (JAK1) [nM] | Ki (Tyk2) [nM] | Ki (JAK2) [nM] | IC50 [1, 3] [nM] | JAK 3 (pKi) (JAK3) | JAK 2 (pKi) (JAK2) | JAK3 (pKi)-JAK1 (pKi) (JAK3; [4]) | Tall-1 (pIC50) [1] | JAK 1 (pKi) (JAK1) | pKi (JAK3; JAK 3 (pKi)) | IC50 [1, 5] [nM] |
| --- | --- | --- | --- | --- | --- | --- | --- | --- | --- | --- | --- | --- | --- |
| CN(C)C/C=C/C(=O)N1CC[C@H](Oc2cc(-c3ccc(O)cc3)cc3[nH]ncc23)C1 [Compound 1-1] | 0.1 to 1 | A (a value of 3 or above) | > 100 | > 100 | 10 to 100 | – | – | – | – | – | – | – | – |
| C=CC(=O)N1CC[C@H](Oc2cc(-c3ccc(O)cc3)cc3[nH]ncc23)C1 [Compound 1-2] | < 0.1 | A (a value of 3 or above) | > 100 | > 100 | 10 to 100 | < 31.6 | – | – | – | – | – | – | – |
| C=CC(=O)N1CC[C@H](Oc2cc(-c3ccc(O)c(F)c3)cc3[nH]ncc23)C1 [Compound 1-5] | < 0.1 | A (a value of 3 or above) | > 100 | > 100 | 10 to 100 | < 31.6 | – | – | – | – | – | – | – |
| C=CC(=O)N1CC[C@H](Oc2nc(-c3ccc(O)cc3)cc3[nH]ncc23)C1 [Compound 1-8] | 0.1 to 1 | A (a value of 3 or above) | > 100 | > 100 | > 100 | 31.6 to 200 | – | – | – | – | – | – | – |
| C=CC(=O)N1C[C@@H](Oc2cc(-c3ccc(O)cc3)cc3[nH]ncc23)C[C@H]1C [Compound 1-11] | < 0.1 | A (a value of 3 or above) | > 100 | > 100 | > 100 | < 31.6 | – | – | – | – | – | – | – |
| C=CC(=O)N1CC[C@H](Oc2cc(-c3ccc(O)c(F)c3Cl)cc3[nH]ncc23)C1 [Compound 1-15] | < 0.1 | A (a value of 3 or above) | > 100 | > 100 | > 100 | 31.6 to 200 | – | – | – | – | – | – | – |
| C=CC(=O)N1CC[C@H](Oc2cc(-c3cc(F)c(O)cc3C)cc3[nH]ncc23)C1 [Compound 1-16] | 0.1 to 1 | B (a value of 2.3 to 3) | > 100 | > 100 | 10 to 100 | 31.6 to 200 | – | – | – | – | – | – | – |
| C=CC(=O)N1CC[C@H](Oc2cc(-c3ccc(O)cc3F)cc3[nH]ncc23)C1 [Compound 1-17] | 0.1 to 1 | A (a value of 3 or above) | > 100 | > 100 | 10 to 100 | < 31.6 | – | – | – | – | – | – | – |
| C=CC(=O)N1CC[C@H](Oc2cc(-c3c(F)cc(O)cc3F)cc3[nH]ncc23)C1 [Compound 1-18] | 0.1 to 1 | B (a value of 2.3 to 3) | 10 to 100 | > 100 | 10 to 100 | < 31.6 | – | – | – | – | – | – | – |
| C=CC(=O)N1CC(C(C)Oc2nc(-c3ccc(O)cc3)nc3[nH]ncc23)C1 (stereo not drawn) [Compound 3-78] | – | A (a value of 3 or above) | – | – | – | – | B (a pKi value between 9 and 10 (Ki between 1 nM and 0.1 nM)) | E (a pKi value of 7 or below (Ki of 100 nM or above)) | – | – | – | – | – |
| C=CC(=O)N1CC(OCc2cc(-c3ccc(O)cc3)nc3[nH]ncc23)C1 [Compound 16-4] | – | – | – | – | – | – | B (a pKi value between 9 and 10 (Ki between 1 nM and 0.1 nM)) | – | A (a value of 3 or above) | B (a pIC50 value between 6.7 (included) and 7.5 (IC50 between 200 nM and 32 nM)) | E (a pKi value of 7 or below (Ki of 100 nM or above)) | – | – |
| C#CC(=O)N1CC[C@H](Oc2cc(-c3ccc(O)cc3)cc3[nH]ncc23)C1 [Compound 17, (S)-1-(3-((6-(4-hydroxyphenyl)-1H-indazol-4-yl)oxy)pyrrolidin-1-yl)prop-2-yn-1-one] | – | B (a value of 2.3 to 3) | > 100 | – | – | 200 to 1000 | – | – | – | – | – | 9.00 to 10.00 | – |
| C=CC(=O)N1CCC(Oc2cc(-c3ccc(O)cc3)cc3[nH]nnc23)C1 (stereo not drawn) [Compound 17-2] | – | – | – | – | – | – | A (a pKi value≥10 (Ki≤0.1 nM)) | – | A (a value of 3 or above) | C (a pIC50 value between 6 and 6.7 (IC50 between 1 μM and 200 nM)) | E (a pKi value of 7 or below (Ki of 100 nM or above)) | – | – |
| CN(C)C/C=C/C(=O)N1CC(COc2cc(-c3c(F)cc(O)cc3F)cc3[nH]ncc23)C1 [Compound 18-2] | < 0.1 | – | 10 to 100 | – | – | – | – | – | C (a value of 1.8 to 2.3) | – | – | – | < 31.6 |
| Cc1n[nH]c2cc(-c3ccc(O)cc3)cc(OCC3CN(C(=O)/C=C/CN(C)C)C3)c12 [Compound 18-4] | < 0.1 | – | 10 to 100 | – | – | – | – | – | B (a value of 2.3 to 3) | – | – | – | 31.6 to 200 |
| C=CC(=O)N1CC(COc2cc(-c3ccc(O)cc3)cc3[nH]nc(C)c23)C1 [Compound 18-5] | 0.1 to 1 | – | 10 to 100 | – | – | – | – | – | B (a value of 2.3 to 3) | – | – | – | < 31.6 |
| C=CC(=O)N1CC(COc2cc(-c3ccc(O)c(Cl)c3)cc3[nH]nc(C)c23)C1 [Compound 18-6] | 0.1 to 1 | – | 10 to 100 | – | – | – | – | – | B (a value of 2.3 to 3) | – | – | – | < 31.6 |
| C=CC(=O)N1CC(COc2cc(-c3ccc(O)c(F)c3)cc3[nH]nc(C)c23)C1 [Compound 18-7] | 0.1 to 1 | – | 10 to 100 | – | – | – | – | – | C (a value of 1.8 to 2.3) | – | – | – | < 31.6 |
| C=CC(=O)N1CC(COc2cc(-c3ccc(O)cc3)cc3[nH]nc(N(C)C)c23)C1 [Compound 18-11] | 0.1 to 1 | – | > 100 | – | – | – | – | – | A (a value of 3 or above) | – | – | – | 200 to 1000 |
| C=CC(=O)N1CC(COc2cc(-c3ccc(O)cc3)cc3[nH]nc(Cl)c23)C1 [Compound 18-14] | – | – | – | – | – | – | B (a pKi value between 9 and 10 (Ki between 1 nM and 0.1 nM)) | – | A (a value of 3 or above) | B (a pIC50 value between 6.7 (included) and 7.5 (IC50 between 200 nM and 32 nM)) | E (a pKi value of 7 or below (Ki of 100 nM or above)) | – | – |
